Experimental data taken from patent US6479435B1, “Diaryl ethers and processes for their preparation and herbicidal and desiccant compositions containing them” (ISK Americas Incorporated, priority 1997, dated 2002).

Legend:
Format in all cases: in vivo
[1] = system: field corn (Zea mays L., var. Dekalb 535, CORN); experiment: Pre-emerge greenhouse test, crop damage rating; conditions: 14 days after application, rating scale 0-100
Source text: (§1) A standard greenhouse herbicide activity screening system was used to evaluate the herbicidal efficacy and crop safety of these test compounds. Six broadleaf weed species including redroot pigweed (Amaranthus retroflexus, AMARE), velvetleaf (Abutilon theophrasti, ABUTH), sicklepod (Cassia obtusifolia, CASOB), ivyleaf morningglory (Ipomoea hederacea, IPOHE), lambsquarters (Chenopodium album, CHEAL) and common ragweed (Ambrosia artemisiifolia L., AMBEL) were used as test species. Four grass weed species including green foxtail (Setaria viridis, SETVI), barnyardgrass (Echinochloa crusgalli, ECHCG), Johnsongrass (Sorghum halepense, SORHA), and large crabgrass (Digitaria sanguinalis, DIGSA) were also used. In addition, three crop species, field corn (Zea mays L., var. Dekalb 535, CORN), soybean (Glycine max L., var. Pella 86, SOY), and upland rice (Oryza sp., var.Tebonnet, RICE) were included.
(§2) All plants were grown in 10 cm square plastic pots which were filled with a sandy loam soil mix. For preemerge tests, seeds were planted one day prior to application of the test compounds. Immediately after application, test units of the pre-emerge applications were watered at the soil surface to incorporate the test materials. Subsequently, these test units were bottom-watered.
(§3) All test compounds were dissolved in acetone and applied to the test units in a volume of 187 l/ha. Test materials were applied at rates ranging from 125 g ai/ha to 1000 g ai/ha using a track sprayer equipped with a TJ8001E even flow flat fan spray nozzle. Plants were arranged on a shelf so that the top of the canopy (post-emerge) or top of the soil surface (pre-emerge) was 40-45 cm below the nozzle. Pressurized air was used to force the test solution through the nozzle as it was mechanically advanced (via electrically driven chain drive) over the top of all test plants/pots. This application simulates a typical commercial field herbicide application.
(§4) At 14 days after application of the test materials, phytotoxicity ratings were recorded. A rating scale of 0-100 was used as previously described in Research Methods in Weed Science, 2nd edition, B. Truelove, Ed., Southern Weed Science Society, Auburn University, Auburn, Ala., 1977. Briefly, “0” corresponds to no damage and “100” corresponds to complete death of all plants in the test unit. This scale was used both to determine efficacy against weed species and damage to crop species. Herbicide activity data for various compounds of this invention, which are shown by compound number in Tables 1-9, are shown in Tables 13 and 14.

[2] = system: upland rice (Oryza sp., var.Tebonnet, RICE); experiment: Pre-emerge greenhouse test, crop damage rating; conditions: 14 days after application, rating scale 0-100
Source text: as §1, §2, §3, §4

[3] = system: soybean (Glycine max L., var. Pella 86, SOY); experiment: Pre-emerge greenhouse test, crop damage rating; conditions: 14 days after application, rating scale 0-100
Source text: as §1, §2, §3, §4

[4] = system: large crabgrass (Digitaria sanguinalis, DIGSA); experiment: Post-emerge greenhouse herbicide test, phytotoxicity rating; conditions: 14 days after application
Source text: as §1, §3
(§5) In the post-emerge test, a commercial non-ionic surfactant was also included (0.25% v/v) to enhance wetting of the leaf surfaces Qf target plants at rates ranging from 63 g ai/ha to 1000 g ai/ha. For post-emerge tests, seeds were planted 8-21 days prior to the test to allow emergence and good foliage development prior to application of the test substances. At the time of the post-emerge application, plants of all species were usually at the 2-3 leaf stage of development. Post-emerge test units were always bottom-watered.
as §4

[5] = system: redroot pigweed (Amaranthus retroflexus, AMARE); experiment: as above; conditions: 14 days after application
Source text: as §1, §3, §5, §4

[6] = system: sicklepod (Cassia obtusifolia, CASOB); experiment: as above; conditions: 14 days after application
Source text: as §1, §3, §5, §4

[7] = system: ivyleaf morningglory (Ipomoea hederacea, IPOHE); experiment: as above; conditions: 14 days after application
Source text: as §1, §3, §5, §4

[8] = system: lambsquarters (Chenopodium album, CHEAL); experiment: as above; conditions: 14 days after application
Source text: as §1, §3, §5, §4

[9] = system: Johnsongrass (Sorghum halepense, SORHA); experiment: as above; conditions: 14 days after application
Source text: as §1, §3, §5, §4

[10] = system: green foxtail (Setaria viridis, SETVI); experiment: as above; conditions: 14 days after application
Source text: as §1, §3, §5, §4

[11] = system: barnyardgrass (Echinochloa crusgalli, ECHCG); experiment: as above; conditions: 14 days after application
Source text: as §1, §3, §5, §4

[12] = system: velvetleaf (Abutilon theophrasti, ABUTH); experiment: as above; conditions: 14 days after application
Source text: as §1, §3, §5, §4

[13] = system: field corn (Zea mays L., var. Dekalb 535, CORN); experiment: Post-emerge greenhouse test, crop damage rating; conditions: 14 days after application
Source text: as §1, §3, §5, §4

[14] = system: upland rice (Oryza sp., var.Tebonnet, RICE); experiment: Post-emerge greenhouse test, crop damage rating; conditions: 14 days after application
Source text: as §1, §3, §5, §4

[15] = system: soybean (Glycine max L., var. Pella 86, SOY); experiment: Post-emerge greenhouse test, crop damage rating; conditions: 14 days after application
Source text: as §1, §3, §5, §4

[16] = system: large crabgrass (Digitaria sanguinalis, DIGSA); experiment: Pre-emerge greenhouse herbicide test, phytotoxicity rating; conditions: 14 days after application, rating scale 0-100
Source text: as §1, §2, §3, §4

[17] = system: redroot pigweed (Amaranthus retroflexus, AMARE); experiment: as above; conditions: 14 days after application, rating scale 0-100
Source text: as §1, §2, §3, §4

[18] = system: sicklepod (Cassia obtusifolia, CASOB); experiment: as above; conditions: 14 days after application, rating scale 0-100
Source text: as §1, §2, §3, §4

[19] = system: ivyleaf morningglory (Ipomoea hederacea, IPOHE); experiment: as above; conditions: 14 days after application, rating scale 0-100
Source text: as §1, §2, §3, §4

[20] = system: lambsquarters (Chenopodium album, CHEAL); experiment: as above; conditions: 14 days after application, rating scale 0-100
Source text: as §1, §2, §3, §4

[21] = system: Johnsongrass (Sorghum halepense, SORHA); experiment: as above; conditions: 14 days after application, rating scale 0-100
Source text: as §1, §2, §3, §4

[22] = system: green foxtail (Setaria viridis, SETVI); experiment: as above; conditions: 14 days after application, rating scale 0-100
Source text: as §1, §2, §3, §4

[23] = system: barnyardgrass (Echinochloa crusgalli, ECHCG); experiment: as above; conditions: 14 days after application, rating scale 0-100
Source text: as §1, §2, §3, §4

[24] = system: velvetleaf (Abutilon theophrasti, ABUTH); experiment: as above; conditions: 14 days after application, rating scale 0-100
Source text: as §1, §2, §3, §4

With O=c1cc2n(c(=O)n1-c1cc(Oc3ccc([N+](=O)[O-])cc3)c(Cl)cc1F)CCC2 [Compound 5-2] the “crop damage rating CORN” value ([1]; 1000 g ai/ha) was 0, the “crop damage rating RICE” value ([2]; 1000 g ai/ha) was 50 and the “crop damage rating SOY” value ([3]; 1000 g ai/ha) was 10. The “DIGSA phytotoxicity rating (0-100)” value ([4]; 1000 g al/ha) was 0, the “AMARE phytotoxicity rating (0-100)” value ([5]; 1000 g al/ha) was 20 and the “CASOB phytotoxicity rating (0-100)” value ([6]; 1000 g al/ha) was 0. For the same molecule, the “IPOHE phytotoxicity rating (0-100)” value ([7]; 1000 g al/ha) was 40, the “CHEAL phytotoxicity rating (0-100)” value ([8]; 1000 g al/ha) was 40 and the “SORHA phytotoxicity rating (0-100)” value ([9]; 1000 g al/ha) was 0. The “SETVI phytotoxicity rating (0-100)” value ([10]; 1000 g al/ha) was 10, the “ECHCG phytotoxicity rating (0-100)” value ([11]; 1000 g al/ha) was 0 and the “ABUTH phytotoxicity rating (0-100)” value ([12]; 1000 g al/ha) was 70. The “CORN crop damage rating (0-100)” value ([13]; 1000 g al/ha) was 0, the “RICE crop damage rating (0-100)” value ([14]; 1000 g al/ha) was 10 and the “SOY crop damage rating (0-100)” value ([15]; 1000 g al/ha) was 15. For the same molecule, the “phytotoxicity rating DIGSA” value ([16]; 1000 g ai/ha) was 70, the “phytotoxicity rating AMARE” value ([17]; 1000 g ai/ha) was 40 and the “phytotoxicity rating CASOB” value ([18]; 1000 g ai/ha) was 0. The “phytotoxicity rating IPOHE” value ([19]; 1000 g ai/ha) was 50, the “phytotoxicity rating CHEAL” value ([20]; 1000 g ai/ha) was 100 and the “phytotoxicity rating SORHA” value ([21]; 1000 g ai/ha) was 80. The “phytotoxicity rating SETVI” value ([22]; 1000 g ai/ha) was 90, the “phytotoxicity rating ECHCG” value ([23]; 1000 g ai/ha) was 50 and the “phytotoxicity rating ABUTH” value ([24]; 1000 g ai/ha) was 100.
In the case of CCN1CC(=O)N(c2cc(Oc3ncccc3C(F)(F)F)c(Cl)cc2F)C1=O [Compound 8-1, 3-[4-chloro-2-fluoro-5-(trifluoromethyl-2-pyridyloxy)phenyl]-1-ethylimidazolidine-2,4-dione], the “crop damage rating CORN” value ([1]; 500 g ai/ha) is reported as 0, the “crop damage rating RICE” value ([2]; 500 g ai/ha) is reported as 30 and the “crop damage rating SOY” value ([3]; 500 g ai/ha) is reported as 0. The “DIGSA phytotoxicity rating (0-100)” value ([4]; 500 g al/ha) was 0, the “AMARE phytotoxicity rating (0-100)” value ([5]; 500 g al/ha) was 40 and the “CASOB phytotoxicity rating (0-100)” value ([6]; 500 g al/ha) was 30. For the same molecule, the “IPOHE phytotoxicity rating (0-100)” value ([7]; 500 g al/ha) was 70, the “CHEAL phytotoxicity rating (0-100)” value ([8]; 500 g al/ha) was 85 and the “SORHA phytotoxicity rating (0-100)” value ([9]; 500 g al/ha) was 0. The “SETVI phytotoxicity rating (0-100)” value ([10]; 500 g al/ha) was 10, the “ECHCG phytotoxicity rating (0-100)” value ([11]; 500 g al/ha) was 0 and the “ABUTH phytotoxicity rating (0-100)” value ([12]; 500 g al/ha) was 90. For the same molecule, the “CORN crop damage rating (0-100)” value ([13]; 500 g al/ha) was 0, the “RICE crop damage rating (0-100)” value ([14]; 500 g al/ha) was 0 and the “SOY crop damage rating (0-100)” value ([15]; 500 g al/ha) was 50. The “phytotoxicity rating DIGSA” value ([16]; 500 g ai/ha) was 100, the “phytotoxicity rating AMARE” value ([17]; 500 g ai/ha) was 100 and the “phytotoxicity rating CASOB” value ([18]; 500 g ai/ha) was 70. For the same molecule, the “phytotoxicity rating IPOHE” value ([19]; 500 g ai/ha) was 30, the “phytotoxicity rating CHEAL” value ([20]; 500 g ai/ha) was 100 and the “phytotoxicity rating SORHA” value ([21]; 500 g ai/ha) was 60. For the same molecule, the “phytotoxicity rating SETVI” value ([22]; 500 g ai/ha) was 85, the “phytotoxicity rating ECHCG” value ([23]; 500 g ai/ha) was 40 and the “phytotoxicity rating ABUTH” value ([24]; 500 g ai/ha) was 95.
